Experimental data from ChEMBL document CHEMBL1201861, “Genomics of Drug Sensitity in Cancer screening data, Wellcome Trust Sanger Institute”.

What was measured:
[1] = system: COR-L105; experiment: cells; type: functional, cell-based; details: Homo sapiens
Description: SANGER: Inhibition of human COR-L105 cell growth in a cell viability assay.

[2] = system: DBTRG-05MG; experiment: cells; type: functional, cell-based; details: Homo sapiens;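 note: cell viability assay measuring growth inhibition of human DBTRG-05MG cells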
Description: SANGER: Inhibition of human DBTRG-05MG cell growth in a cell viability assay.

[3] = system: EB2; experiment: cells; type: functional, cell-based; details: Homo sapiens;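 note: growth inhibition of EB2 cells, read out with a cell viability assay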
Description: SANGER: Inhibition of human EB2 cell growth in a cell viability assay.

[4] = system: EHEB; experiment: cells; type: functional, cell-based; details: Homo sapiens;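 note: growth inhibition of human EHEB cells, read out with a cell viability assay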
Description: SANGER: Inhibition of human EHEB cell growth in a cell viability assay.

[5] = system: EVSA-T; experiment: cells; type: functional, cell-based; details: Homo sapiens;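 note: growth inhibition of EVSA-T cells, read out with a cell viability assay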
Description: SANGER: Inhibition of human EVSA-T cell growth in a cell viability assay.

[6] = system: HCC1419; experiment: cells; type: functional, cell-based; details: Homo sapiens;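 note: growth inhibition of human HCC1419 cells, read out as cell viability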
Description: SANGER: Inhibition of human HCC1419 cell growth in a cell viability assay.

[7] = system: HMV-2 cell line; experiment: cells; type: functional, cell-based; details: Homo sapiens;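 note: growth inhibition of HMV-II cells, read out with a cell viability assay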
Description: SANGER: Inhibition of human HMV-II cell growth in a cell viability assay.

[8] = system: HPAF-II; experiment: cells; type: functional, cell-based; details: Homo sapiens;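 note: growth inhibition of HPAF-II cells, read out with a cell viability assay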
Description: SANGER: Inhibition of human HPAF-II cell growth in a cell viability assay.

[9] = system: HT-1376; experiment: cells; type: functional, cell-based; details: Homo sapiens
Description: SANGER: Inhibition of human HT-1376 cell growth in a cell viability assay.

[10] = system: HT-3; experiment: cells; type: functional, cell-based; details: Homo sapiens;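 note: growth inhibition measured with a cell viability readout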
Description: SANGER: Inhibition of human HT-3 cell growth in a cell viability assay.

[11] = system: Hs-578T; experiment: cells; type: functional, cell-based; details: Homo sapiens
Description: SANGER: Inhibition of human Hs-578-T cell growth in a cell viability assay.

[12] = system: Huh-7; experiment: cells; type: functional, cell-based; details: Homo sapiens;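 note: HuH-7 cell growth inhibition, read out with a cell viability assay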
Description: SANGER: Inhibition of human HuH-7 cell growth in a cell viability assay.

[13] = system: IGROV-1; experiment: cells; type: functional, cell-based; details: Homo sapiens;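 note: reduction of IGROV-1 cell growth, read out with a viability assay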
Description: SANGER: Inhibition of human IGROV-1 cell growth in a cell viability assay.

[14] = system: IST-SL2; experiment: cells; type: functional, cell-based; details: Homo sapiens;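 note: growth inhibition of human IST-SL2 cells, read out by a cell viability assay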
Description: SANGER: Inhibition of human IST-SL2 cell growth in a cell viability assay.

[15] = system: JEG-3; experiment: cells; type: functional, cell-based; details: Homo sapiens;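 note: growth inhibition of human JEG-3 cells, read out with a cell viability assay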
Description: SANGER: Inhibition of human JEG-3 cell growth in a cell viability assay.

[16] = system: KYSE-270; experiment: cells; type: functional, cell-based; details: Homo sapiens;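 note: cell growth inhibition measured with a viability assay in the human KYSE-270 line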
Description: SANGER: Inhibition of human KYSE-270 cell growth in a cell viability assay.

[17] = system: KYSE-450; experiment: cells; type: functional, cell-based; details: Homo sapiens;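 note: cell growth inhibition measured by a viability assay in human KYSE-450 cells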
Description: SANGER: Inhibition of human KYSE-450 cell growth in a cell viability assay.

[18] = system: LB647-SCLC; experiment: cells; type: functional, cell-based; details: Homo sapiens;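 note: cell growth inhibition, read out by a viability assay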
Description: SANGER: Inhibition of human LB647-SCLC cell growth in a cell viability assay.

[19] = system: LCLC-103H cell line; experiment: cells; type: functional, cell-based; details: Homo sapiens
Description: SANGER: Inhibition of human LCLC-103H cell growth in a cell viability assay.

[20] = system: LK-2; experiment: cells; type: functional, cell-based; details: Homo sapiens;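 note: growth inhibition of LK-2 cells, read out with a viability assay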
Description: SANGER: Inhibition of human LK-2 cell growth in a cell viability assay.

[21] = system: LOUCY; experiment: cells; type: functional, cell-based; details: Homo sapiens;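 note: growth inhibition of human LOUCY cells, read out with a cell viability assay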
Description: SANGER: Inhibition of human LOUCY cell growth in a cell viability assay.

[22] = system: MDA-MB-175-VII; experiment: cells; type: functional, cell-based; details: Homo sapiens
[23] = system: MG-63; experiment: cells; type: functional, cell-based; details: Homo sapiens;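 note: growth inhibition of human MG-63 cells, read out with a cell viability assay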
Description: SANGER: Inhibition of human MG-63 cell growth in a cell viability assay.

[24] = system: MHH-ES-1; experiment: cells; type: functional, cell-based; details: Homo sapiens
Description: SANGER: Inhibition of human MHH-ES-1 cell growth in a cell viability assay.

[25] = system: MKN-45; experiment: cells; type: functional, cell-based; details: Homo sapiens;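 note: growth inhibition of human MKN-45 cells, measured with a cell viability assay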
Description: SANGER: Inhibition of human MKN45 cell growth in a cell viability assay.

[26] = system: MONO-MAC-6; experiment: cells; type: functional, cell-based; details: Homo sapiens;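 note: cell viability assay measuring growth inhibition of human MONO-MAC-6 cells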
Description: SANGER: Inhibition of human MONO-MAC-6 cell growth in a cell viability assay.

[27] = system: NCI-H2009; experiment: cells; type: functional, cell-based; details: Homo sapiens;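 note: cell viability assay measuring inhibition of NCI-H2009 cell growth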
Description: SANGER: Inhibition of human NCI-H2009 cell growth in a cell viability assay.

[28] = system: NCI-H2052; experiment: cells; type: functional, cell-based; details: Homo sapiens;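 note: growth inhibition of NCI-H2052 cells, read out with a cell viability assay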
Description: SANGER: Inhibition of human NCI-H2052 cell growth in a cell viability assay.

[29] = system: NCI-H2170; experiment: cells; type: functional, cell-based; details: Homo sapiens;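 note: cell viability assay measuring growth inhibition of human NCI-H2170 cancer cells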
Description: SANGER: Inhibition of human NCI-H2170 cell growth in a cell viability assay.

[30] = system: NCI-H322M; experiment: cells; type: functional, cell-based; details: Homo sapiens;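 note: cell viability assay measuring inhibition of growth of human NCI-H322M cells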
Description: SANGER: Inhibition of human NCI-H322M cell growth in a cell viability assay.

[31] = system: OPM-2; experiment: cells; type: functional, cell-based; details: Homo sapiens;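 note: growth of OPM-2 cells measured with a viability assay, IC50 for suppression of proliferation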
Description: SANGER: Inhibition of human OPM-2 cell growth in a cell viability assay.

[32] = system: OVCAR-8; experiment: cells; type: functional, cell-based; details: Homo sapiens;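 note: growth inhibition of human OVCAR-8 cells, read out by a cell viability assay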
Description: SANGER: Inhibition of human OVCAR-8 cell growth in a cell viability assay.

[33] = system: RD; experiment: cells; type: functional, cell-based; details: Homo sapiens
Description: SANGER: Inhibition of human RD cell growth in a cell viability assay.

[34] = system: RPMI-2650; experiment: cells; type: functional, cell-based; details: Homo sapiens
Description: SANGER: Inhibition of human RPMI-2650 cell growth in a cell viability assay.

[35] = system: RPMI 8402; experiment: SANGER: Inhibition of human RPMI-8402 cell growth in a cell viability assay.; type: functional, cell-based
[36] = system: SAS; experiment: cells; type: functional, cell-based; details: Homo sapiens;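 note: growth inhibition of SAS cells, read out with a cell viability assay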
Description: SANGER: Inhibition of human SAS cell growth in a cell viability assay.

[37] = system: SBC-5; experiment: cells; type: functional, cell-based; details: Homo sapiens;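 note: cell viability assay read-out, IC50 is the concentration that inhibits growth of the cells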
Description: SANGER: Inhibition of human SBC-5 cell growth in a cell viability assay.

[38] = system: SCLC-21H; experiment: cells; type: functional, cell-based; details: Homo sapiens;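 note: growth inhibition of cultured human SCLC-21H cells, read out with a cell viability assay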
Description: SANGER: Inhibition of human SCLC-21H cell growth in a cell viability assay.

[39] = system: SK-MEL-24; experiment: cells; type: functional, cell-based; details: Homo sapiens;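 note: growth inhibition read out by a cell viability assay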
Description: SANGER: Inhibition of human SK-MEL-24 cell growth in a cell viability assay.

[40] = system: SK-MEL3; experiment: cells; type: functional, cell-based, SK-MEL-3; details: Homo sapiens;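 note: growth inhibition of human SK-MEL-3 cells, read out with a cell viability assay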
Description: SANGER: Inhibition of human SK-MEL-3 cell growth in a cell viability assay.

[41] = system: SNU-387; experiment: cells; type: functional, cell-based; details: Homo sapiens
Description: SANGER: Inhibition of human SNU-387 cell growth in a cell viability assay.

[42] = system: SNU-449; experiment: cells; type: functional, cell-based; details: Homo sapiens
Description: SANGER: Inhibition of human SNU-449 cell growth in a cell viability assay.

[43] = system: SW1783; experiment: cells; type: functional, cell-based; details: Homo sapiens
Description: SANGER: Inhibition of human SW1783 cell growth in a cell viability assay.

[44] = system: SW-620; experiment: cells; type: functional, cell-based; details: Homo sapiens;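 note: growth inhibition of human SW-620 cells, measured by a cell viability assay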
Description: SANGER: Inhibition of human SW620 cell growth in a cell viability assay.

[45] = system: SW626; experiment: cells; type: functional, cell-based; details: Homo sapiens;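 note: growth inhibition of SW626 cells, measured with a cell viability assay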
Description: SANGER: Inhibition of human SW626 cell growth in a cell viability assay.

[46] = system: SW756; experiment: cells; type: functional, cell-based; details: Homo sapiens;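 note: growth inhibition of human SW756 cells, read out with a cell viability assay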
Description: SANGER: Inhibition of human SW756 cell growth in a cell viability assay.

[47] = system: TCC-SUP; experiment: cells; type: functional, cell-based; details: Homo sapiens;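 note: growth inhibition of TCC-SUP cells, read out with a cell viability assay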
Description: SANGER: Inhibition of human TCCSUP cell growth in a cell viability assay.

[48] = system: 23132-87; experiment: cells; type: functional, cell-based; details: Homo sapiens
Description: SANGER: Inhibition of human 23132-87 cell growth in a cell viability assay.

[49] = system: A-431; experiment: cells; type: functional, cell-based; details: Homo sapiens;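 note: growth inhibition of A-431 cells, determined with a cell viability read-out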
Description: SANGER: Inhibition of human A431 cell growth in a cell viability assay.

[50] = system: ASPC1; experiment: cells; type: functional, cell-based; details: Homo sapiens;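 note: growth inhibition of AsPC-1 cells, read out with a cell viability assay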
Description: SANGER: Inhibition of human AsPC-1 cell growth in a cell viability assay.

[51] = system: BOKU; experiment: cells; type: functional, cell-based; details: Homo sapiens;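 note: growth inhibition of the human BOKU cell line, read out by a cell viability assay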
Description: SANGER: Inhibition of human BOKU cell growth in a cell viability assay.

[52] = system: CAL-120; experiment: cells; type: functional, cell-based; details: Homo sapiens;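 note: cell growth inhibition, read out as cell viability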
Description: SANGER: Inhibition of human CAL-120 cell growth in a cell viability assay.

[53] = system: CAL-12T; experiment: cells; type: functional, cell-based, Homo sapiens; details: Homo sapiens, CAL-12T;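 note: growth inhibition of human CAL-12T cells, read out with a cell viability assay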
Description: SANGER: Inhibition of human CAL-12T cell growth in a cell viability assay.

[54] = system: CAL-148; experiment: cells; type: functional, cell-based; details: Homo sapiens
Description: SANGER: Inhibition of human CAL-148 cell growth in a cell viability assay.

[55] = system: CAL-72; experiment: cells; type: functional, cell-based; details: Homo sapiens;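 note: cell viability assay measuring inhibition of proliferation in the CAL-72 cell line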
Description: SANGER: Inhibition of human CAL-72 cell growth in a cell viability assay.

[56] = system: CAL-85-1; experiment: cells; type: functional, cell-based; details: Homo sapiens;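 note: growth inhibition of human CAL-85-1 cells, read out with a cell viability assay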
Description: SANGER: Inhibition of human CAL-85-1 cell growth in a cell viability assay.

[57] = system: TE-15; experiment: cells; type: functional, cell-based; details: Homo sapiens;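 note: cell viability readout of growth inhibition in TE-15 cells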
Description: SANGER: Inhibition of human TE-15 cell growth in a cell viability assay.

[58] = system: TGW; experiment: cells; type: functional, cell-based; details: Homo sapiens;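 note: growth inhibition of human TGW cells, read out with a cell viability assay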
Description: SANGER: Inhibition of human TGW cell growth in a cell viability assay.

[59] = system: U2OS; experiment: cells; type: functional, cell-based, U-2-OS; details: Homo sapiens;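 note: growth inhibition of human U-2-OS cells, determined with a cell viability assay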
Description: SANGER: Inhibition of human U-2-OS cell growth in a cell viability assay.

[60] = system: UO-31; experiment: cells; type: functional, cell-based; details: Homo sapiens
Description: SANGER: Inhibition of human U031 cell growth in a cell viability assay.

[61] = system: VMRC-RCZ; experiment: cells; type: functional, cell-based; details: Homo sapiens
Description: SANGER: Inhibition of human VMRC-RCZ cell growth in a cell viability assay.

[62] = system: CAMA-1; experiment: cells; type: functional, cell-based; details: Homo sapiens;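 note: growth inhibition of CAMA-1 cells, read out with a cell viability assay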
Description: SANGER: Inhibition of human CAMA-1 cell growth in a cell viability assay.

[63] = system: CHL-1; experiment: cells; type: functional, cell-based; details: Homo sapiens;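 note: cell growth inhibition, read out with a cell viability assay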
Description: SANGER: Inhibition of human CHL-1 cell growth in a cell viability assay.

## CO[C@@]12[C@H](COC(N)=O)C3=C(C(=O)C(C)=C(N)C3=O)N1C[C@@H]1N[C@@H]12 [MITOMYCIN]
[1]
  IC50: 1610 nM
[2]
  IC50: 570 nM
[3]
  IC50: 65.4 nM
[4]
  IC50: 672 nM
[5]
  IC50: 1570 nM
[6]
  IC50: 3480 nM
[7]
  IC50: 166 nM
[8]
  IC50: 1100 nM
[9]
  IC50: 967 nM
[10]
  IC50: < 62.5 nM
[11]
  IC50: 6200 nM
[12]
  IC50: 3220 nM
[13]
  IC50: 106 nM
[14]
  IC50: 388 nM
[15]
  IC50: 2230 nM
[16]
  IC50: 103 nM
[17]
  IC50: 563 nM
[18]
  IC50: 336 nM
[19]
  IC50: 461 nM
[20]
  IC50: 358 nM
[21]
  IC50: 26.2 nM
[22]
  IC50: 3160 nM
[23]
  IC50: 226 nM
[24]
  IC50: 16.3 nM
[25]
  IC50: 165 nM
[26]
  IC50: 72.4 nM
[27]
  IC50: 289 nM
[28]
  IC50: 1990 nM
[29]
  IC50: < 62.5 nM
[30]
  IC50: 1800 nM
[31]
  IC50: 6350 nM
[32]
  IC50: 176 nM
[33]
  IC50: 1900 nM
[34]
  IC50: 196 nM
[35]
  IC50: 17.1 nM
[36]
  IC50: 615 nM
[37]
  IC50: < 62.5 nM
[38]
  IC50: 963 nM
[39]
  IC50: 1370 nM
[40]
  IC50: 711 nM
[41]
  IC50: 2930 nM
[42]
  IC50: 3360 nM
[43]
  IC50: 38.6 nM
[44]
  IC50: 39.8 nM
[45]
  IC50: 286 nM
[46]
  IC50: 597 nM
[47]
  IC50: 482 nM
[48]
  IC50: 30.5 nM
[49]
  IC50: 43.8 nM
[50]
  IC50: 2900 nM
[51]
  IC50: 104 nM
[52]
  IC50: 5960 nM
[53]
  IC50: 491 nM
[54]
  IC50: 17.8 nM
[55]
  IC50: > 16000 nM
[56]
  IC50: 65.9 nM
[57]
  IC50: 73.7 nM
[58]
  IC50: 2760 nM
[59]
  IC50: > 16000 nM
[60]
  IC50: 366 nM
[61]
  IC50: 199 nM
[62]
  IC50: 541 nM
[63]
  IC50: 225 nM

## CC(C)=CC[C@@H](O)C1=CC(=O)c2c(O)ccc(O)c2C1=O [SHIKONIN]
[1]
  IC50: 230 nM
[2]
  IC50: 611 nM
[3]
  IC50: 311 nM
[4]
  IC50: 2090 nM
[5]
  IC50: 410 nM
[6]
  IC50: 1690 nM
[7]
  IC50: 56.4 nM
[8]
  IC50: 1270 nM
[9]
  IC50: 915 nM
[10]
  IC50: 948 nM
[11]
  IC50: 6220 nM
[12]
  IC50: 1960 nM
[13]
  IC50: 55.6 nM
[14]
  IC50: 200 nM
[15]
  IC50: 3170 nM
[16]
  IC50: 217 nM
[17]
  IC50: 138 nM
[18]
  IC50: 233 nM
[19]
  IC50: 346 nM
[20]
  IC50: 8570 nM
[21]
  IC50: 586 nM
[22]
  IC50: 2050 nM
[23]
  IC50: 257 nM
[24]
  IC50: 689 nM
[25]
  IC50: 608 nM
[26]
  IC50: 245 nM
[27]
  IC50: 20.5 nM
[28]
  IC50: 61.1 nM
[29]
  IC50: 1720 nM
[30]
  IC50: > 16000 nM
[31]
  IC50: 343 nM
[32]
  IC50: 460 nM
[33]
  IC50: 449 nM
[34]
  IC50: 375 nM
[35]
  IC50: 1500 nM
[36]
  IC50: 854 nM
[37]
  IC50: 215 nM
[38]
  IC50: 1360 nM
[39]
  IC50: 1130 nM
[40]
  IC50: 2640 nM
[41]
  IC50: 1070 nM
[42]
  IC50: 813 nM
[43]
  IC50: 1070 nM
[44]
  IC50: 359 nM
[45]
  IC50: 635 nM
[46]
  IC50: 762 nM
[47]
  IC50: 554 nM
[48]
  IC50: 2110 nM
[49]
  IC50: 107 nM
[50]
  IC50: 619 nM
[51]
  IC50: 1870 nM
[52]
  IC50: 1360 nM
[53]
  IC50: 1900 nM
[54]
  IC50: 677 nM
[55]
  IC50: 1010 nM
[56]
  IC50: 161 nM
[57]
  IC50: 400 nM
[58]
  IC50: 522 nM
[59]
  IC50: > 16000 nM
[60]
  IC50: 771 nM
[61]
  IC50: 547 nM
[62]
  IC50: 1520 nM
[63]
  IC50: 168 nM

## C/C=C(/C)C(=O)O[C@H]1C(C)=C2[C@H]([C@@H]1OC(=O)CCCCCCC)[C@@](C)(OC(C)=O)C[C@H](OC(=O)CCC)[C@@]1(O)[C@H]2OC(=O)[C@@]1(C)O [THAPSIGARGIN]
[1]
  IC50: 11.5 nM
[2]
  IC50: 11.7 nM
[3]
  IC50: 10.4 nM
[4]
  IC50: 94.1 nM
[5]
  IC50: 122 nM
[6]
  IC50: > 512 nM
[7]
  IC50: 6.87 nM
[8]
  IC50: 61.9 nM
[9]
  IC50: 2.75 nM
[10]
  IC50: 21.7 nM
[11]
  IC50: > 512 nM
[12]
  IC50: < 2 nM
[13]
  IC50: < 2 nM
[14]
  IC50: 6.76 nM
[15]
  IC50: 9.78 nM
[16]
  IC50: 1.49 nM
[17]
  IC50: 0.777 nM
[18]
  IC50: 4.86 nM
[19]
  IC50: < 2 nM
[20]
  IC50: 1.46 nM
[21]
  IC50: 29.9 nM
[22]
  IC50: 330 nM
[23]
  IC50: 2.79 nM
[24]
  IC50: 4.18 nM
[25]
  IC50: 25.4 nM
[26]
  IC50: 3.8 nM
[27]
  IC50: 1.63 nM
[28]
  IC50: 6.4 nM
[29]
  IC50: 14.4 nM
[30]
  IC50: > 512 nM
[31]
  IC50: < 2 nM
[32]
  IC50: 25 nM
[33]
  IC50: 7.35 nM
[34]
  IC50: 2.74 nM
[35]
  IC50: 5.23 nM
[36]
  IC50: 106 nM
[37]
  IC50: 8.08 nM
[38]
  IC50: 1.69 nM
[39]
  IC50: > 512 nM
[40]
  IC50: 6.51 nM
[41]
  IC50: 2.2 nM
[42]
  IC50: 4.18 nM
[43]
  IC50: 9.24 nM
[44]
  IC50: 3.02 nM
[45]
  IC50: 17.7 nM
[46]
  IC50: 12.7 nM
[47]
  IC50: 51.6 nM
[48]
  IC50: 31.4 nM
[49]
  IC50: 4.11 nM
[50]
  IC50: > 512 nM
[51]
  IC50: > 512 nM
[52]
  IC50: 44.1 nM
[53]
  IC50: < 2 nM
[54]
  IC50: > 512 nM
[55]
  IC50: 2.27 nM
[56]
  IC50: 6.03 nM
[57]
  IC50: 4.91 nM
[58]
  IC50: 4.73 nM
[59]
  IC50: 44.7 nM
[60]
  IC50: 57.7 nM
[61]
  IC50: 11.2 nM
[62]
  IC50: 10.5 nM
[63]
  IC50: 12.5 nM
